# Test system: BRAFV600EPTEN−/− melanoma cells
# Assay: MTT cell proliferation assay in culture
# Assay type: cell-based, mouse
# Settings: NLRP3 inhibitor (MCC950) in culture
# Description: FIG. 14A-H. (A) NLRP3 Western blot analysis of NTC and NLRP3KD BRAFV600EPTEN−/− melanoma cells. (B) Representative dot plots of PMN-MDSC and CD8+ T cell flow cytometry analysis of resected BRAFV600EPTEN^−/−-NTC and BRAFV600EPTEN^−/−-NLRP3KD stable cell lines. Representative of 2 independent experiments. (C) Top, MTT cell proliferation assay of BRAFV600EPTEN^−/−-NTC, BRAFV600EPTEN−/−-NLRP3KD, BRAFV600EPTEN^−/−-PDL1KD stable cell lines in culture. ns, non-significant. Bottom, MTT cell proliferation assay of BRAFV600EPTEN−/−melanoma cells following treatment with NLRP3 inhibitor (MCC950) in culture. Each performed in triplicate. (D) Tumor growth curve of BRAFV600EPTEN^−/−-NLRP3KDmelanomas with CD8+ T cell ablation. Mice treated with anti-CD8 ab ip daily×3 days followed by anti-CD8 ab one week later (gray boxes). BRAFV600EPTEN^−/−-NTC control tumors also included (n=5). (E) Plasma HSP70 ELISA of BRAFV600EPTEN^−/− melanoma-bearing mice following treatment with IgG isotype control ab, anti-PD-1 ab, or anti-PD-1 ab+MCC950 NLRP3 inhibitor (NLRP3i) (n=4/group). NTC, non-targeted control. KD, knockdown. (F) IL-1β qrt-PCR analysis of BRAFV600EPTEN−/− melanoma cells (n=3). Data normalized to TLR9 expression. (G) Above, IL-1β ELISA of BRAFV600EPTEN−/−-melanoma cell line supernatant after IFNγ/anti-PD-L1 ab treatment in vitro (n=3). […]
smiles,measurement,value
"CC(C)(O)c1coc(S(=O)(=O)NC(=O)Nc2c3c(cc4c2CCC4)CCC3)c1 [MCC950, N-[[(1,2,3,5,6,7-hexahydro-s-indacen-4-yl)amino]carbonyl]-4-(1-hydroxy-1-methylethyl)-2-furansulfonamide]",impact on tumor cell proliferation in vitro,neither pharmacologic inhibition of NLRP3 nor genetic silencing of Nlrp3 had any impact

# Source: patent publication US12121565B2, “Methods of treatment of specific cancers with NLRP3 inhibitors and anti-PD1/PD-L1 antibodies” (Duke University, priority 2019, dated 2024)
